Reference: patent publication US20110112184A1, “COMPOUNDS WITH GLYCIDIC STRUCTURE ACTIVE IN THE THERAPY OF SYSTEMIC AND LOCAL INFLAMMATION” (priority 2008, published 2011)

test system: HT29 cells; assay: LPS-induced IL-8 production by HT29 intestinal epithelial cells (ELISA); assay type: cell-based, human; settings: compounds 50 mg/L to 5 μg/L for 18 h, then LPS (Salmonella enterica abortus equi) 1 μg/ml 6 h
Protocol: FIG. 2A. LPS-induced IL-8 production by HT29 cells in the absence or presence of the indicated concentrations of compound (c) 4, 5, 6, 7, 4′, 14.
The effect of the compounds on the release of IL-8 or KC was tested upon stimulation of intestinal epithelial cells (IEC) with LPS from Salmonella enterica abortus equi. The human IEC line HT29 was used for these experiments. Cells were cultured for 18 h in medium alone or in medium additioned with different concentrations of compounds 4, 5, 6, 7, 4′ and 14 (from 50 mg/L to 5 μg/L). Then, cells were stimulated for 6 h with LPS (1 μg/ml). […] Similar experiments were performed on a human pneumocyte type II cell line (A549) using compound 4 and LPS from Pseudomonas aeruginosa.

SMILES	production of IL-8 induced by LPS
CN(C)c1cccc2c(S(=O)(=O)NCC[C@H]3O[C@H](CO)[C@H](O)[C@H](O)[C@H]3O)cccc12 [4′, 5-(Dimethylamino)-N-[2′-(α-D-galactopyranosyl)ethyl]-1-naphthalenesulfonamide]	significantly inhibited
O=S(=O)(NCC[C@H]1O[C@H](CO)[C@@H](O)[C@H](O)[C@H]1O)c1cccc2ccccc12 [Compound 5]	significantly inhibited
O=C(NCC[C@H]1O[C@H](CO)[C@@H](O)[C@H](O)[C@H]1O)c1cccc2ccccc12 [Compound 6, N-[2′-(α-D-Glucopyranosyl)ethyl]-1-naphtalenecarboxyamide]	significantly inhibited
CCCCN(CCCC)c1cccc2c(S(=O)(=O)NCC[C@H]3O[C@H](CO)[C@@H](O)[C@H](O)[C@H]3O)cccc12 [Compound 7, 5-(Dibutylamino)-N-[2′-(α-D-glucopyranosyl)ethyl]-1-naphthalenesulfonamide]	significantly inhibited
CN(C)c1cccc2c(S(=O)(=O)NCCCC[C@H]3O[C@H](CO)[C@@H](O)[C@H](O)[C@H]3O)cccc12 [Compound 14, 5-(Dimethylamino)-N-[4′-(α-D-glucopyranosyl)butyl]-1-naphthalenesulfonamide]	significantly inhibited
